In a melting point compilation (Tetko et al.; mined from patent text by program, amines drawn as free bases though some values may be those of a salt):

SMILES	melting point [°C]
Cc1cc(CCCCCOc2ccc(C3=NCCO3)cc2C(F)F)on1	80 to 89
CN(C)CCN1C(=O)C(NC(=O)c2ccc(Cl)cc2)C(C)(C)SC1=S (stereo not given)	152 to 153
N[C@@H](Cc1ccccc1)[C@@H](O)C[C@H](Cc1ccccc1)NC(=O)OCc1cncs1	61 to 63
N#CCOC(=O)C=Cc1cc2ccccc2o1	119 to 121
CCOC(=O)c1c(C)cc(C(=O)O)c(NC(C)=O)c1C	164
CCc1ccc2c(c1)NC(=S)C2=O	213 to 214
Cc1cc2c(cc1Cl)NC(NC(C)C)=NS2(=O)=O	120 to 122
COc1ccc(S(=O)(=O)N2C(=O)C(OC(=O)Oc3ccccc3)(c3ccccc3OC(F)(F)F)c3cc(Cl)ccc32)c(OC)c1 (stereo not given)	203 to 204
CCN(CC)C(=O)N[C@H]1CC[C@H](CCN2CCN(c3cccc4c3CCC4)CC2)CC1	157 to 159
CCCCCCCCCCOc1ccc2c(=O)c3cc(C(=O)O)ccc3oc2c1CCC(=O)O	> 210
CCN(CCc1c[nH]c2ccc(F)cc12)C1COc2c(F)ccc(C(=O)NC)c2C1 (stereo not given)	125
CCC1OC1CC(=O)OC(C#N)c1ccc2ccccc2c1 (stereo not given)	60 to 61
Nc1nnc(-c2ccc(Cl)c(C(F)(F)F)c2)c(N)n1	228 to 229
N#Cc1nn(-c2c(Cl)cc(C(F)(F)F)cc2Cl)cc1C1(Cl)CC1C(F)F (stereo not given)	124 to 125
CC(=O)C1=C(O)C(=C(C)Nc2cccc(NS(C)(=O)=O)c2)C(=O)OC1=O	196
CCc1c(C)[nH]c2cc(OCOC)c(Cl)cc2c1=O	217 to 219
COc1cc(OC)nc(Oc2cccc(F)c2)n1	45
C=CC(=O)CCC1=CC(=O)NC1=O	77 to 78
O=C(OC(c1ccccc1)c1ccccc1)C1=CCC2CC(=O)C12 (stereo not given)	115 to 116
C=CCON=C(CCC)C1=C(O)CC(c2cc(C)cs2)CC1=O (stereo not given)	72 to 74

SMILES	melting point [°C]
CCOC(=O)c1cc(-c2ccc(Cl)c(Cl)c2)nn1C	122 to 124
CC12CCC3c4ccc(C(=O)O)cc4CCC3C1CCC2C(=O)c1ccc(S(C)(=O)=O)cc1 (stereo not given)	283 to 286
CN(C)c1ccc2cc(-c3ccnc(Cl)c3C#N)ccc2c1	198 to 200
Cc1nc2cc(Cl)c(C)c(Cl)c2o1	80 to 82
O=C(O)Cn1c(=O)c(=O)[nH]c2cc(Br)c(Br)cc21	> 300
CC(CN1CC(=O)N(CN2CCN(C)CC2)C(=O)C1)N1CC(=O)N(CN2CCN(C)CC2)C(=O)C1 (stereo not given)	93 to 96
CCOC(=O)C1=C(C)NC(C(OCC)OCC)=C(C(=O)OCC)C1c1cc([N+](=O)[O-])ccc1Cl (stereo not given)	117 to 118
CC(C)c1onc2c1c(=O)n(C)c(=O)n2C	106
COC(=O)C(C)NC(=O)NS(=O)(=O)C=Cc1ccccc1 (stereo not given)	138 to 140
O=C(O)CCC(=NO)c1ccc(-c2ccc(C(F)(F)F)cc2)cc1	134 to 136
C=CCOC(=O)c1ccc(N)cc1	48 to 50
CC(=O)Oc1ccc(Cc2ccc(C(=O)O)nc2)cc1	116 to 119
CN1CC2=C(n3cnc(I)c3C1)S(=O)C=C2 (stereo not given)	175 to 177
CCOC(=O)c1cc(=O)c2ccc(N)cc2o1	192 to 194
CC(=O)NC1(C)CC(C)(C)CC(C)(C)C1	110
CN1CCC23c4c5ccc(O)c4OC2C(=O)CCC3(F)C1C5 (stereo not given)	215 to 217
CCCC(=O)C1=C(O)CC(c2c(C)c(C)c(C)c(C)c2S(C)(=O)=O)CC1=O (stereo not given)	132
COC(=O)C(CC(=O)N1CCOCC1)Oc1ccccc1 (stereo not given)	83 to 84
COc1cc2[nH]c(N3CCCN(C(=O)N4CCOCC4)CC3)nc(=O)c2c(C)c1OC	237 to 238
CCOC(=O)c1cn(Cc2cccnc2)nc1O	148 to 149

SMILES	melting point [°C]
NC(=O)c1cccc(C(=O)Nc2ccc(-n3nc(C(F)(F)F)cc3C(F)(F)F)cc2)c1	244 to 245
Cc1ccc(NC(=O)N=C2CCCN2C)cc1	136 to 137
CS(=O)(=O)CCC(=O)NCc1ccc(/C=C/C(c2cc(Cl)c(Cl)c(Cl)c2)C(F)(F)F)cc1Cl (stereo not given)	101 to 104
O=C(NCCSCc1ccccc1)c1cnccc1C(F)(F)F	86 to 88
COc1cc(CCNC(=O)[C@@H](NC(=O)OC(C)(C)C)C(C)C)ccc1OCc1ccccc1	115 to 118
COC(=O)c1cncc(O)c1	186 to 187
CC(C)(C)OC(=O)CN1C(=O)[C@@H](NC(=O)OC(C)(C)C)CCc2ccccc21	145 to 147
O=C(CCCN1CC=C(c2cccc3[nH]ccc23)CC1)c1ccc(F)cc1	155
CC(C)(C)C#Cc1cc([N+](=O)[O-])ccc1C(=O)O	170 to 173
CC(C)(C)Cn1c(=O)c(=O)[nH]c2cc(Cl)c([N+](=O)[O-])cc21	270 to 271
O=C(Nc1n[nH]c(=S)s1)N[C@@H](Cc1ccccc1)C(=O)O	130
c1cc2c3c(c1)Cc1c(ccc4c1OCO4)C3CNC2 (stereo not given)	175 to 176
CC(Cl)(Cl)C(NC(=O)c1ccc(F)cc1)NC(=NC#N)Nc1ccc(Cl)nc1 (stereo not given)	197 to 198
O=C(Nc1ccc(-n2nc(C(F)(F)F)cc2Br)cc1)c1cccc(F)c1F	109 to 112
CCN(CC)C(=O)Cc1ccc(O)c(C(C)(C)C)c1	124 to 126
O=[N+]([O-])c1ccc(S(=O)(=O)Nc2ccccc2)cc1	154 to 156
COC(=O)c1ccc(-n2cccc2C=O)cc1	103 to 105
CCOC(=O)c1ccc(C2=NOC(c3cc(Cl)cc(Cl)c3)(C(F)(F)F)C2)cc1OC (stereo not given)	142 to 144
S=C1Nc2ccccc2Cn2nnnc21	275 to 277
CCOC(=O)C(=NOC1CCCCC1)c1csc(N)n1	125 to 126

Other lines, results leading:

melting point [°C]	SMILES
113 to 114	COc1ccc(C(=O)C2=C(c3ccccc3)c3ccc(OC)cc3C2)cc1
198 to 200	COc1ccc([C@H]2Cc3c(cccc3[N+](=O)[O-])NC(=O)[C@H]2O)cc1 (relative stereo)
193 to 197	Cc1ccc(-c2nc3cccnc3n2CC(=O)N(C)C)s1
208 to 209	Cc1nc(-c2ccccc2)nc(-c2cccc([N+](=O)[O-])c2)c1C(=O)O
237 to 240	O=c1c2c([nH]n1-c1ccc(Cl)cc1)-c1cc(Cl)ccc1SC2
158	CCCCc1cc(Cc2ccc(C(=O)O)cc2)c2ccccc2n1
127	CN1CCN(C2=Cc3ccccc3Oc3ccccc3C2)CC1
168 to 172	COc1ccc(S(=O)(=O)C2(C(=O)NO)CCN(CCOc3ccccc3)CC2)cc1
139 to 142	CC(C)Oc1ccc(-c2nn([C@@H](C)c3oc4ccc(F)cc4c(=O)c3-c3cccc(F)c3)c3ncnc(N)c23)cc1F
154 to 155	O=C(CC1CCN(Cc2ccccc2)CC1)c1ccc(CO)cc1
271 to 273	CC1(C)CC(=O)c2c(ncc3[nH]c4cc(F)ccc4c23)C1
41 to 43	CC(C)c1cccc(-c2ccc(F)cc2)c1O
171 to 173	O=c1cc(N2CCSCC2)oc2c1ccc1ccccc12
76 to 80	Cc1c(OCC(F)(F)F)ccnc1CS(=O)c1nc2ccccc2n1S(=O)(=O)c1ccc2c(c1)OCCOCCOCCOCCO2 (stereo not given)
99 to 100	O=C1CCCc2c1ccc(OCc1ccccc1)c2Cl
136 to 140	Cc1cccc(NC(=O)NC2(C)N=C(N3CCN(C)CC3)c3cccc(C)c3N(C)C2=O)c1 (stereo not given)
195 to 198	Cn1nc(C(=O)O)c(=O)n(-c2ccccc2)c1=O
151 to 152	c1ccc(CCN2CCC(c3n[nH]c4c3CCc3ccccc3-4)CC2)cc1
147	Cc1nc(N)n(C)c(=O)c1CCN1CCC(Cc2nc3ccccc3n2Cc2ccc(F)cc2)CC1
114 to 115	CN(C(=O)OC(C)(C)C)c1cc(Oc2cccc(-c3ccccc3)c2)ccc1N

melting point [°C]	SMILES
235 to 236	CC1(NC(=O)c2ccccc2)COC(c2nc(-c3ccc(F)cc3)c(-c3ccncc3)[nH]2)OC1 (stereo not given)
235 to 237	CC(=O)c1ccc(N2Cc3ccccc3C2=O)cc1
168 to 169	CCOC(=O)OC1C(=O)N(CCN(C)C)c2ccc3ccccc3c2SC1c1ccc(OC)cc1 (stereo not given)
143	CCOC(=O)N1CCN(c2cn(C)c3nc(OCc4ccccn4)ccc23)C(=O)C1
209 to 211	CCCc1c(-c2ccncc2)[nH]c(-c2ccncc2)c1C(=O)OCC
93 to 95	CCN(CC)c1nc2ccccc2n2c(C(C)C)nnc12
166 to 168	Cc1cc(=O)n2cccc(OCc3ccccc3Cl)c2n1
102 to 104	COC(=O)C(Oc1cc(OCc2ccsc2)ccc1C#N)c1ccccc1C (racemic)
205 to 207	CC1(C)CC(=O)C2=C(C1)NC1=C(C(=O)CC(C)(C)C1)C2c1cccc(Oc2ccccc2)c1
124 to 126	CCOCc1nc2c(N)nc3ccccc3c2n1CCCNC(=O)OC(C)(C)C
177 to 179	Nc1nc2c(s1)CC(CN1CCN(c3ccccn3)CC1)CC2 (stereo not given)
70 to 72	CCCCCCC(C(=O)OCC)n1c(C(F)(F)C(F)(F)F)nc2cc(-c3ccccc3-c3nn[nH]n3)ccc21 (stereo not given)
176 to 178	COc1ccc(C2=NN(c3ccc(O)cc3)C(=O)C(C)(C)C2)cc1OC
150 to 151	Cc1nn(-c2ccccn2)cc1COc1ccc(COc2ncccc2CC(=O)O)cc1
192 to 193	Cc1nnc(-c2ccc3occ(-c4cnn(Cc5ccccc5C#N)c4)c3c2)o1
160 to 162	COc1ccc(S(=O)(=O)Nc2ccccc2NC(=O)c2ccc(F)cc2Cl)cc1
315 to 316	Cn1cc(C2=C(c3c4n(c5ccccc35)CCC(C(N)=O)C4)C(=O)NC2=O)c2ccccc21 (stereo not given)
155 to 156	OCc1cn(Cc2ccc(OCc3coc(-c4ccccc4)n3)cc2)nc1-c1cccs1
> 300	Nc1nc2c(nc(Br)n2Cc2ccc(Cl)cc2)c(=O)[nH]1
181 to 183	O=C1c2cscc2Nc2ccccc2N1Cc1ccc(Cl)c(C(F)(F)F)c1
